Measurements reported in patent publication US20240383908A1, “SYNTHESIS AND APPLICATION OF PHOSPHATASE DEGRADER” (HINOVA PHARMACEUTICALS INC., priority 2021, published 2024).

The compounds below were run against T1, SHP2 protein (Homo sapiens, UniProt Q06124) (assay: Degradation activity on SHP2 protein in MV-411 cells (Western blot, DC50)). Conditions: MV411 cells, 24 hours, read-out: Degradation activity for differenct cell lines MV411 (DC50).
T1 sequence (Q06124 1-593): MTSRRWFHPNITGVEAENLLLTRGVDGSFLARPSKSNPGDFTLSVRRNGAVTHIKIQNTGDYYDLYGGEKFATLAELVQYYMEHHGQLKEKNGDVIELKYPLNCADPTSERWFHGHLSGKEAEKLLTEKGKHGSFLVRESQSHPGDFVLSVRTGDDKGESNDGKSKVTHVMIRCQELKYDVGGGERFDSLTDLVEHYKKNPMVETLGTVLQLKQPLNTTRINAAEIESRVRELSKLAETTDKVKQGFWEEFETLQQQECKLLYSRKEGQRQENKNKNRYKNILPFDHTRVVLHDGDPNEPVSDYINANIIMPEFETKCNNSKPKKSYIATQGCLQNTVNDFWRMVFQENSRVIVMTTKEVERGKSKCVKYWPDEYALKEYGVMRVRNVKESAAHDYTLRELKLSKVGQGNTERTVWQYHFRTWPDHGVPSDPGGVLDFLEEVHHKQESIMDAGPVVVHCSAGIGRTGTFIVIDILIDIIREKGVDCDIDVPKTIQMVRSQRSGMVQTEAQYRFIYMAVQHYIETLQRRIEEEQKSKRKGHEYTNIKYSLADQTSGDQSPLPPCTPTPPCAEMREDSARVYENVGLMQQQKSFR
Assay type: cell-based
Set-up: endogenous in cells
Procedure, shortened: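 Western blot of SHP2 (GAPDH loading control, 30 μg protein/lane) in lysates of MV-411 cells exposed 24 h to final compound concentrations of 100, 10, 3, 1, 0.3 and 0.1 nM (0.1% DMSO). Degradation relative to DMSO set at 100%; DC50 derived by curve fitting.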

| Compound | DC50 |
| --- | --- |
| CC1(N)CCN(c2cnc(Sc3cccc(NC(=O)CCCCCCCCN4CCN(c5ccc(C(=O)NCc6ccc7c(c6)CN(C6CCC(=O)NC6=O)C7=O)nn5)CC4)c3)cn2)CC1 (stereo not drawn) [Compound 63] | < 100 nM |
| CC1(N)CCN(c2cnc(Sc3cccc(NC(=O)CCCCCCCCN4C5CCC4CN(c4ccc(C(=O)NCc6ccc7c(c6)CN(C6CCC(=O)NC6=O)C7=O)nn4)C5)c3)cn2)CC1 (stereo not drawn) [Compound 119] | < 100 nM |
| CCC1(N)CCN(c2cnc(Sc3cccc(NC(=O)CCCCCCN4CC5(CCN(c6ccc(C(=O)NCc7ccc8c(c7)CN(C7CCC(=O)NC7=O)C8=O)nn6)C5)C4)c3)cn2)CC1 (stereo not drawn) [Compound 161] | < 100 nM |
| NC1(CO)CCN(c2cnc(Sc3cccc(NC(=O)CCCCCCN4CC5(CCN(c6ccc(C(=O)NCc7ccc8c(c7)CN(C7CCC(=O)NC7=O)C8=O)nn6)C5)C4)c3)cn2)CC1 (stereo not drawn) [Compound 168] | < 100 nM |
| CC1(N)CCN(c2cnc(Sc3cccc(NC(=O)CCCCCCCCN4CCN(c5ccc(C(=O)NCc6ccc7c(c6)CN(C6CCC(=O)NC6=O)C7=O)nn5)CC4C(F)(F)F)c3)cn2)CC1 (stereo not drawn) [Compound 174] | < 100 nM |
| Cc1ncsc1-c1ccc([C@H](C)NC(=O)[C@@H]2C[C@@H](O)CN2C(=O)[C@@H](NC(=O)CCCCCCCCN2CCN(C(=O)CCC(=O)Nc3cccc(Sc4ncc(N5CCC(C)(N)CC5)nc4N)c3Cl)CC2)C(C)(C)C)cc1 [Compound 999] | < 100 nM |
